Experimental data as given in patent US20230086702A1, “SUBSTITUTED 2-AMINO-PYRAZOLYL-[1,2,4]TRIAZOLO[1,5A]PYRIDINE DERIVATIVES AND USE THEREOF” (The Johns Hopkins University, priority 2019, published 2023).

What was measured:
LZK = target: T1, LZK (Homo sapiens, UniProt O43283); test: LZK biochemical assay (TR-FRET, MKK7 phosphorylation)
T1 construct: 10 nM LZK, catalytic domain, Carna Biosiences in assay buffer; purchased Carna Biosciences ('Carna Biosiences' [sic])
T1 sequence (O43283 168-409 limits assumed): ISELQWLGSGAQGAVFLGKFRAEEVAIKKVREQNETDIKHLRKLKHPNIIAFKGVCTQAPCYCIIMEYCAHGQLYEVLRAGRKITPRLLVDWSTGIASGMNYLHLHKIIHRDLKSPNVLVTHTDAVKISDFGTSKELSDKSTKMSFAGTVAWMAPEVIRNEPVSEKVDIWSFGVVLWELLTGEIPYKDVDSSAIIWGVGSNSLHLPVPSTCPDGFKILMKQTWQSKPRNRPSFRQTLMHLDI
Procedure: (§1) LZK assay is a biochemical assay format designed to screen for inhibitors of LZK. Enzymatic activity of LZK is measured by monitoring phosphorylation of the physiological substrate MKK7 (MAP2K7, Dual specificity mitogen-activated protein kinase kinase 7). Phosphorylation is detected by a TR-FRET system whereby His-tagged MKK7 is labeled by a XL665-labeled anti-His antibody (FRET acceptor, emission 665 nm). LZK phosphorylates MKK7 at T275/S277 which is detected by an Eu-labeled anti-phospho-MKK7 (T275/S277) antibody (FRET donor, excitation 340 nm). Phosphorylation of MKK7 results in an increased TR-FRET signal (Ratio XL665-channel/Eu-channel) and inhibition of enzymatic activity of LZK decreases the TR-FRET signal.
(§2) Assay Protocol for 384 low volume MTP format: 1 μl of test compound is pipetted into test plate; +5 μl LZK solution (10 nM LZK, catalytic domain, Carna Biosiences in assay buffer); +5 μl substrate solution (15 nM MKK7, LDB; 15 μM ATP, in assay buffer); 90 min incubation at RT; +5 μl detection mix (20 nM XL665-labeled anti-His antibody, Cisbio; 0.4 nM Eu-labeled anti-phospho-MKK7 (T275/S277), Cisbio/Millipore in detection buffer); 16 h incubation at 32° C.; endpoint measurement BMG (HTRF).
(§3) All indicated concentrations final concentrations.
(§4) Assay buffer (384 format): 50 mM Hepes pH 7.5, 10 mM MgCl2, 1 mM EGTA, 1 mM DTT, 0.01% Triton X-100, 0.01% BSA, 1:500 Smart Block.
(§5) Detection buffer: 25 mM Tris/HCl pH 7.5, 100 mM EDTA, 100 mM NaCl, 200 mM KF, 0.01% Tween 20, 1:500 Smart Block.

DLK = target: T2, DLK (Homo sapiens, UniProt Q12852); test: DLK biochemical assay (TR-FRET, MKK7 phosphorylation)
T2 construct: 10 nM DLK, catalytic domain, Carna Biosiences; purchased Carna Biosciences ('Carna Biosiences' [sic])
T2 sequence (Q12852 125-366 limits assumed): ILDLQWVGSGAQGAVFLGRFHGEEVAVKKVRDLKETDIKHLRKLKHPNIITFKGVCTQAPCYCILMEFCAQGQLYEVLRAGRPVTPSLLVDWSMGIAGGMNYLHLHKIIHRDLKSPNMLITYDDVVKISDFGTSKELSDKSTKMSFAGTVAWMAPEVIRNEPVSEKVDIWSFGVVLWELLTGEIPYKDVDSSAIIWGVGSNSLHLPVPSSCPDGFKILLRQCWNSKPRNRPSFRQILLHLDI
Procedure: as §1, with “DLK assay” for “LZK assay”, “of DLK.” for “of LZK.”, “of DLK” for “of LZK”, “nm). DLK” for “nm). LZK”, “at T275/S277,” for “at T275/S277”
Assay Protocol for 1536 MTP format: test compounds are predispensed (60 nl) in test plates; +3 μl DLK solution (10 nM DLK, catalytic domain, Carna Biosiences, 0.6 mM DTT in assay buffer); +2 μl substrate solution (15 nM MKK7, LDB; 60 μM ATP; 0.4 mM DTT in assay buffer); 90 min incubation at RT; +2 μl detection mix (5 nM XL665-labeled anti-His antibody, Cisbio; 0.1 nM Eu-labeled anti-phospho-MKK7 (T275/S277), Cisbio/Millipore in detection buffer); 16 h incubation at 37° C.; endpoint measurement BMG (HTRF).
as §2, with “test compounds” for “test compound”, “μl DLK” for “μl LZK”, “nM DLK,” for “nM LZK,”, “LDB; 60” for “LDB; 15”, “RT; +9” for “RT; +5”, “at 4°” for “at 32°”
as §3, §4, §5

| IC50 (LZK) | IC50 (DLK) | Compound |
| --- | --- | --- |
| 1.7 nM | 2.3 nM | Nc1nc2c(-c3cc(CO)ccc3Cl)cc(-c3cnn(C(c4ccc(C(F)(F)F)nc4)C4CCOCC4)c3)cn2n1 (single isomer, unassigned) [II-5, {3-[2-Amino-6-(1-{tetrahydro-2H-pyran-4-yl[6-(trifluoromethyl)pyridin-3-yl]methyl}-1H-pyrazol-4-yl)[1,2,4]triazolo[1,5-a]pyridin-8-yl]-4-chlorophenyl}methanol] |
| 0.9 nM | 0.7 nM | CC(C)(O)c1cccc(-c2cc(-c3cnn(C(c4ccc(C(F)(F)F)nc4)C4CCOCC4)c3)cn3nc(N)nc23)c1 (racemic) [II-10, 2-{3-[2-Amino-6-(1-{tetrahydro-2H-pyran-4-yl[6-(trifluoromethyl)pyridin-3-yl]methyl}-1H-pyrazol-4-yl)[1,2,4]triazolo[1,5-a]pyridin-8-yl]phenyl}propan-2-ol] |
| 4.7 nM | 2.9 nM | Nc1nc2cc(-c3cnn(C(c4ccc(C(F)(F)F)nc4)C4CCOCC4)c3)cc(-c3cnn(CC(F)(F)F)c3)n2n1 (stereo not drawn) [II-149] |
| 3.5 nM | 1.1 nM | CCS(=O)(=O)c1cccc(-c2cc(-c3cnn(C(c4ccc(C(F)(F)F)nc4)C4CCOCC4)c3)cn3nc(N)nc23)c1 (racemic) [II-16, 8-[3-(Ethylsulfonyl)phenyl]-6-(1-{tetrahydro-2H-pyran-4-yl[6-(trifluoromethyl)pyridin-3-yl]methyl}-1H-pyrazol-4-yl)[1,2,4]triazolo[1,5-a]pyridin-2-amine] |
| 100 nM | 60 nM | CC(C)C(c1ccc(C(F)(F)F)nc1)n1cc(-c2cc(-c3ccc(C4CC4)nc3)c3nc(N)nn3c2)cn1 (single isomer, unassigned) [II-44] |
| 34 nM | 14 nM | CCC(c1ccc(C(F)(F)F)nc1)n1cc(-c2cc(-c3cnn(CC(F)(F)F)c3)c3nc(N)nn3c2)cn1 (racemic) [II-111, 8-[1-(2,2,2-trifluoroethyl)-1H-pyrazol-4-yl]-6-(1-{1-[6-(trifluoromethyl)pyridin-3-yl]propyl}-1H-pyrazol-4-yl)[1,2,4]triazolo[1,5-a]pyridin-2-amine] |
| 140 nM | 23 nM | CC(C)C(c1ccc(C(F)(F)F)nc1)n1cc(-c2cc(-c3cnn(CC(F)(F)F)c3)n3nc(N)nc3c2)cn1 (single isomer, unassigned) [II-141, 7-(1-{2-Methyl-1-[6-(trifluoromethyl)pyridin-3-yl]propyl}-1H-pyrazol-4-yl)-5-[1-(2,2,2-trifluoroethyl)-1H-pyrazol-4-yl][1,2,4]triazolo[1,5-a]pyridin-2-amine] |
| 2 nM | 0.8 nM | Nc1nc2c(-c3ccc(=O)n(CC(F)(F)F)c3)cc(-c3cnn([C@H](c4ccc(C(F)(F)F)nc4)C4CCOCC4)c3)cn2n1 [II-162] |
| 7.9 nM | 11 nM | CC(C)C(c1ccc(C(F)(F)F)nc1)n1cc(-c2cc(-c3ccc(C4CC4)nc3)n3nc(N)nc3c2)cn1 (single isomer, unassigned) [II-60, 5-(6-Cyclopropylpyridin-3-yl)-7-(1-{2-methyl-1-[6-(trifluoromethyl)pyridin-3-yl]propyl}-1H-pyrazol-4-yl)[1,2,4]triazolo[1,5-a]pyridin-2-amine] |
| 25 nM | 13 nM | CC(C)C(c1ccc(C(F)F)nc1)n1cc(-c2cc(-c3ccc(OC(F)F)nc3)n3nc(N)nc3c2)cn1 (single isomer, unassigned) [II-51, 5-[6-(Difluoromethoxy)pyridin-3-yl]-7-(1-{1-[6-(difluoromethyl)pyridin-3-yl]-2-methylpropyl}-1H-pyrazol-4-yl)[1,2,4]triazolo[1,5-a]pyridin-2-amine] |
| 52 nM | 18 nM | CC(C)C(c1ccc(C(F)(F)F)nc1)n1cc(-c2cc(-c3ccc(C(F)(F)F)nc3)c3nc(N)nn3c2)cn1 (single isomer, unassigned) [II-42, 6-(1-{2-Methyl-1-[6-(trifluoromethyl)pyridin-3-yl]propyl}-1H-pyrazol-4-yl)-8-[6-(trifluoromethyl)pyridin-3-yl][1,2,4]triazolo[1,5-a]pyridin-2-amine] |
| 16 nM | 4.7 nM | Nc1nc2c(-c3cnn(CC(F)(F)F)c3)cc(-c3cnn(C(c4ccc(C(F)(F)F)nc4)C4CCOCC4)c3)cn2n1 (single isomer, unassigned) [II-119, 6-(1-{Tetrahydro-2H-pyran-4-yl[6-(trifluoromethyl)pyridin-3-yl]methyl}-1H-pyrazol-4-yl)-8-[1-(2,2,2-trifluoroethyl)-1H-pyrazol-4-yl][1,2,4]triazolo[1,5-a]pyridin-2-amine] |
| 15 nM | 26 nM | CC(C)C(c1ccc(C(F)(F)F)nc1)n1cc(-c2cc(-c3ccc(C(F)F)nc3)n3nc(N)nc3c2)cn1 (racemic) [II-70, 5-[6-(Difluoromethyl)pyridin-3-yl]-7-(1-{2-methyl-1-[6-(trifluoromethyl)pyridin-3-yl]propyl}-1H-pyrazol-4-yl)[1,2,4]triazolo[1,5-a]pyridin-2-amine] |
| 170 nM | 22 nM | Nc1nc2cc(-c3cnn(C(c4ccccc4)C4CCOCC4)c3)cc(-c3cnn(CC(F)(F)F)c3)n2n1 (single isomer, unassigned) [II-148, 7-{1-[Phenyl(tetrahydro-2H-pyran-4-yl)methyl]-1H-pyrazol-4-yl}-5-[1-(2,2,2-trifluoroethyl)-1H-pyrazol-4-yl][1,2,4]triazolo[1,5-a]pyridin-2-amine] |
| 210 nM | 440 nM | CC(C)C(c1ccc(C(F)F)nc1)n1cc(-c2cc(-c3ccc(C(F)(F)F)nc3)n3nc(N)nc3c2)cn1 (single isomer, unassigned) [II-65, 7-(1-{1-[6-(Difluoromethyl)pyridin-3-yl]-2-methylpropyl}-1H-pyrazol-4-yl)-5-[6-(trifluoromethyl)pyridin-3-yl][1,2,4]triazolo[1,5-a]pyridin-2-amine] |
| 97 nM | 120 nM | CC(C)C(c1ccc(C(F)(F)F)nc1)n1cc(-c2cc(-c3ccnc(C(F)(F)F)c3)n3nc(N)nc3c2)cn1 (single isomer, unassigned) [II-29, 7-(1-{2-Methyl-1-[6-(trifluoromethyl)pyridin-3-yl]propyl}-1H-pyrazol-4-yl)-5-[2-(trifluoromethyl)pyridin-4-yl][1,2,4]triazolo[1,5-a]pyridin-2-amine] |
| 6.3 nM | 3.2 nM | Nc1nc2cc(-c3cnn(C(c4ccc(C(F)(F)F)nc4)C4CCOCC4)c3)cc(-c3ccc(=O)n(CC(F)(F)F)c3)n2n1 (stereo not drawn) [II-191] |
| 37 nM | 39 nM | CC(n1cc(-c2cc(-c3cnn(Cc4ccccc4)c3)cc3nc(N)nn23)cn1)C(F)(F)F (stereo not drawn) [II-122] |
